Measurements published in PubChem BioAssay (NCI).
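Here, GI50 denotes the concentration required for 50% inhibition of growth. TGI is the concentration that stops growth completely.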

Key:
Assay in all cases: inhibition of tumour cell growth, NCI panel, 384-well format
MDA-MB-231 breast = system: MDA-MB-231 breast
NCI-H226 lung = system: NCI-H226 lung
EKVX NSCLC = system: EKVX NSCLC
RPMI-8226 leukemia = system: RPMI-8226 leukemia
K-562 leukemia = system: K-562 leukemia
MDA-MB-435 melanoma = system: MDA-MB-435 melanoma
SR leukemia = system: SR leukemia
NCI-H322M lung = system: NCI-H322M lung
DU-145 prostate = system: DU-145 prostate
HS 578T breast = system: HS 578T breast
A498 renal = system: A498 renal
KM12 colon = system: KM12 colon
HOP-92 NSCLC = system: HOP-92 NSCLC

Compound | GI50 (MDA-MB-231 breast) [µM] | TGI (MDA-MB-231 breast) [µM] | GI50 (NCI-H226 lung) [µM] | TGI (NCI-H226 lung) [µM] | GI50 (EKVX NSCLC) [µM] | TGI (EKVX NSCLC) [µM] | GI50 (RPMI-8226 leukemia) [µM] | TGI (RPMI-8226 leukemia) [µM] | GI50 (K-562 leukemia) [µM] | TGI (K-562 leukemia) [µM] | GI50 (MDA-MB-435 melanoma) [µM] | TGI (MDA-MB-435 melanoma) [µM] | GI50 (SR leukemia) [µM] | TGI (SR leukemia) [µM] | GI50 (NCI-H322M lung) [µM] | TGI (NCI-H322M lung) [µM] | GI50 (DU-145 prostate) [µM] | TGI (DU-145 prostate) [µM] | GI50 (HS 578T breast) [µM] | TGI (HS 578T breast) [µM] | also measured
O=C(Nc1cccc(C(F)(F)F)c1)Nc1cc(S(=O)(=O)NC2CC2)ccc1-c1ccsc1 | 10.6 | 23 | 4.75 | 14.7 | 4.79 | 15.5 | 1.88 | 3.36 | 3.45 | 11.5 | 6.53 | 18.9 | 0.863 | 2.19 | 5.66 | 17.2 | 6.35 | 16.4 | 2.87 | 7.27 | GI50 (A498 renal): 2.86 µM; TGI (A498 renal): 8.34 µM; GI50 (KM12 colon): 4.02 µM; TGI (KM12 colon): 12.7 µM; GI50 (HOP-92 NSCLC): 3.36 µM; TGI (HOP-92 NSCLC): 10.5 µM
CN(C)C(=O)c1cc2cnc(Nc3ccc(N4CCNCC4)cn3)nc2n1C1CCCC1 | 4.09 | 33.7 | 8.83 | 58.1 | 30.1 | > 73 | 0.607 | 27.4 | 10.8 | 29.7 | 52.2 | > 100 | 0.507 | 1.97 | 21.3 | 59.5 | 16.7 | 43.9 | 33 | > 58.5 | GI50 (A498 renal): 23.9 µM; TGI (A498 renal): 45.1 µM; GI50 (KM12 colon): 2.51 µM; TGI (KM12 colon): 35.5 µM; GI50 (HOP-92 NSCLC): 11.9 µM; TGI (HOP-92 NSCLC): 57.4 µM
COc1cc2nccc(Oc3ccc(NC(=O)C4(C(=O)Nc5ccc(F)cc5)CC4)cc3)c2cc1OC | 2.48 | 6.76 | 1.41 | 4.74 | 4.64 | 15.7 | 3.09 | 7.73 | 0.295 | 1.07 | 3.94 | 12 | 2.95 | 4.49 | 3.36 | 16 | 4.85 | 31.5 | 1.96 | 6.4 | GI50 (A498 renal): 3.29 µM; TGI (A498 renal): 12.2 µM; GI50 (KM12 colon): 0.0614 µM; TGI (KM12 colon): 14.3 µM; GI50 (HOP-92 NSCLC): 1.29 µM; TGI (HOP-92 NSCLC): 4.93 µM
